Experimental data as given in publication PMC7206119, “RIP1 inhibition blocks inflammatory diseases but not tumor growth or metastases” (Cell Death and Differentiation, 2019).

Key:
Test in all cases: biochemical
Set-up in all cases: DiscoverX kinase panel, active-site competition binding (KINOMEscan type), percent of control at one concentration
Settings in all cases: competition binding, percent of control
FAK = molecular target: T1, FAK (Homo sapiens, UniProt Q05397)
T1 construct: gene PTK2

AURKC = AURKC (Homo sapiens, UniProt Q9UQB9)
ASK1 = molecular target: T2, ASK1 (Homo sapiens, UniProt Q99683)
T2 construct: gene MAP3K5

VEGFR2 = molecular target: T3, VEGFR2 (Homo sapiens, UniProt P35968)
T3 construct: gene KDR

TNK1 = TNK1 (Homo sapiens, UniProt Q13470)
PIK3C2G = PIK3C2G (Homo sapiens, UniProt O75747)
PCTK1 = molecular target: T4, PCTK1 (Homo sapiens, UniProt Q00536)
T4 construct: gene CDK16
T4 sequence (Q00536 whole entry): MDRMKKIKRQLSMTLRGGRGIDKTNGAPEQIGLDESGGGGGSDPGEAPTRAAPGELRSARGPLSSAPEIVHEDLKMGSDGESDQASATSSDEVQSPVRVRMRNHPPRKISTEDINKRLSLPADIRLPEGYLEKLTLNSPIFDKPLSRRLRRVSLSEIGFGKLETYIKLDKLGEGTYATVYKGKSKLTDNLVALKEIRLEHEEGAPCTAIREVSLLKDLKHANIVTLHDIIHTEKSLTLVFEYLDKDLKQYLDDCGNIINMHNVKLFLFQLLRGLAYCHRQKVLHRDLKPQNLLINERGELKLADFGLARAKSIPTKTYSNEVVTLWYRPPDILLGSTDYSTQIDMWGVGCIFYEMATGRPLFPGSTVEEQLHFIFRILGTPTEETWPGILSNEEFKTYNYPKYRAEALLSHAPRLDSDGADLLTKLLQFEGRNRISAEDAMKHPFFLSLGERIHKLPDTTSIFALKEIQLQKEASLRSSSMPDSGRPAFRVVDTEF

LKB1 = molecular target: T5, LKB1 (Homo sapiens, UniProt Q15831)
T5 construct: gene STK11
T5 sequence (Q15831 whole entry): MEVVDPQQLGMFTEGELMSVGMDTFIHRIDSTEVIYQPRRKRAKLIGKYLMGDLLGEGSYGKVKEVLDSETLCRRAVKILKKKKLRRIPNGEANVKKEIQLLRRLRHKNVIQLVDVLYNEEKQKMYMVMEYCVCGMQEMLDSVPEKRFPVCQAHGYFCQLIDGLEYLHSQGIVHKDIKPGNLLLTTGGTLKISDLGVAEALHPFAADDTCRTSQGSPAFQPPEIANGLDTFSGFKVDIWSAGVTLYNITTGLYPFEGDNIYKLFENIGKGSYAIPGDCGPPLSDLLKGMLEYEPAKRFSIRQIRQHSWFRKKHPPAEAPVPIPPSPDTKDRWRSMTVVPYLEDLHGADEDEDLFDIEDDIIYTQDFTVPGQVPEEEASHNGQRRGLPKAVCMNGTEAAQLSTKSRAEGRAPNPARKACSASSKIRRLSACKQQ

EGFR(L858R) = EGFR(L858R) (Homo sapiens, UniProt P00533, L858R)
[1] = molecular target: T6, ABL1(Q252H)-phosphorylated (Homo sapiens, UniProt P00519, Q252H)
T6 construct: phosphorylated

NEK2 = NEK2 (Homo sapiens, UniProt P51955)
PKN1 = PKN1 (Homo sapiens, UniProt Q16512)
AMPK-alpha1 = molecular target: T7, AMPK-alpha1 (Homo sapiens, UniProt Q13131)
T7 construct: gene PRKAA1
T7 sequence (Q13131 whole entry): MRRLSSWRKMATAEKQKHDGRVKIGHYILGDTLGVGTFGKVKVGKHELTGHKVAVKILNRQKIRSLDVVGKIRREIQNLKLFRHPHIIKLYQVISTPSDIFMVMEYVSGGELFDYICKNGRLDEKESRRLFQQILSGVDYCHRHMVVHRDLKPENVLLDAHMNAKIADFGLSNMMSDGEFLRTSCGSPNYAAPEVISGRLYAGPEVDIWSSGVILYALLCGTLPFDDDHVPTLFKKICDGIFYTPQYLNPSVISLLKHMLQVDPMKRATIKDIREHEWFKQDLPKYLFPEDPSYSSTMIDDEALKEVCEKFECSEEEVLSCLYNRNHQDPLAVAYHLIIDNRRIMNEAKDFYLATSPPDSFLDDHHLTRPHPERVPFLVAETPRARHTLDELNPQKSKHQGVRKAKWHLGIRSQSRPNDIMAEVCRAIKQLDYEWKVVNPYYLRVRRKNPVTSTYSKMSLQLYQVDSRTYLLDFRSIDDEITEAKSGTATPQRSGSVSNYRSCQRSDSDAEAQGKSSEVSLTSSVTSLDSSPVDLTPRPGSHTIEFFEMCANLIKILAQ

WEE2 = WEE2 (Homo sapiens, UniProt P0C1S8)
Sequence of WEE2 (P0C1S8 whole entry): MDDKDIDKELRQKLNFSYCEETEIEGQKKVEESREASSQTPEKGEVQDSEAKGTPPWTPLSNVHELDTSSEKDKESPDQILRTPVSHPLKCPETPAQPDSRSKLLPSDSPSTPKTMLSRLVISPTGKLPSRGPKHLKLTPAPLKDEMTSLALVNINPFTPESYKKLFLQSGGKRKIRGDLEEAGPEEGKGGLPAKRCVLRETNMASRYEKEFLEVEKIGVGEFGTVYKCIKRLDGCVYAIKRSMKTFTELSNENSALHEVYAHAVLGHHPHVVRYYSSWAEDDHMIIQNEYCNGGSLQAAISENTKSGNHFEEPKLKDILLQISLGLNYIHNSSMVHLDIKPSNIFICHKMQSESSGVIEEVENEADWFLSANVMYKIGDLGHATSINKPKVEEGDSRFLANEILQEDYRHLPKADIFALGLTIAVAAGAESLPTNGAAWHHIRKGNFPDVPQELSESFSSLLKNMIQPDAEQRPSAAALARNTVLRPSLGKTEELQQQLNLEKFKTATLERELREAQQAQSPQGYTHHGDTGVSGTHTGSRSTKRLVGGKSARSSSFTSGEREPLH

FLT3(D835V) = FLT3(D835V) (Homo sapiens, UniProt P36888, D835V)
[2] = molecular target: T8, RPS6KA4(Kin.Dom.1-N-terminal) (Homo sapiens, UniProt O75676)
T8 construct: Kin.Dom.1-N-terminal
T8 sequence (O75676 whole entry): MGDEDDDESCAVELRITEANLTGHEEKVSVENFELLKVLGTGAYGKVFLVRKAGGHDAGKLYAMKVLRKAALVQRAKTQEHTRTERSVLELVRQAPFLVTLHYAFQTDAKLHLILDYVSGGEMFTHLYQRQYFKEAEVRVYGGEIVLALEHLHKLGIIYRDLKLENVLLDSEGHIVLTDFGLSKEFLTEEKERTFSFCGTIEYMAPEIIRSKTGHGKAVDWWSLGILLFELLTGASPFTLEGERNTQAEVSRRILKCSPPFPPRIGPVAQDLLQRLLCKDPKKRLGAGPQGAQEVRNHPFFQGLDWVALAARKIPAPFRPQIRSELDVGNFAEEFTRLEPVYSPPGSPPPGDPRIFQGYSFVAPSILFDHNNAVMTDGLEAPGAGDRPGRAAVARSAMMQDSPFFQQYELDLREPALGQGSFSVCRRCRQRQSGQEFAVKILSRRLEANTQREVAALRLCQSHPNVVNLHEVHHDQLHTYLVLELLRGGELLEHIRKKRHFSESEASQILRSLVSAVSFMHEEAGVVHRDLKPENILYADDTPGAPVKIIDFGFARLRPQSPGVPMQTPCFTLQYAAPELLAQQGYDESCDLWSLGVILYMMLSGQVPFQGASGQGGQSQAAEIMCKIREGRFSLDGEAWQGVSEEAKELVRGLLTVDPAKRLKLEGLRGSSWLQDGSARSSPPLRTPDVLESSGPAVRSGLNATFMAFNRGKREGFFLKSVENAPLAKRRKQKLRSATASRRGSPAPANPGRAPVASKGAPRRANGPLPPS

BRK = molecular target: T9, BRK (Homo sapiens, UniProt Q13882)
T9 construct: gene PTK6

GRK7 = GRK7 (Homo sapiens, UniProt Q8WTQ7)
Sequence of GRK7 (Q8WTQ7 whole entry): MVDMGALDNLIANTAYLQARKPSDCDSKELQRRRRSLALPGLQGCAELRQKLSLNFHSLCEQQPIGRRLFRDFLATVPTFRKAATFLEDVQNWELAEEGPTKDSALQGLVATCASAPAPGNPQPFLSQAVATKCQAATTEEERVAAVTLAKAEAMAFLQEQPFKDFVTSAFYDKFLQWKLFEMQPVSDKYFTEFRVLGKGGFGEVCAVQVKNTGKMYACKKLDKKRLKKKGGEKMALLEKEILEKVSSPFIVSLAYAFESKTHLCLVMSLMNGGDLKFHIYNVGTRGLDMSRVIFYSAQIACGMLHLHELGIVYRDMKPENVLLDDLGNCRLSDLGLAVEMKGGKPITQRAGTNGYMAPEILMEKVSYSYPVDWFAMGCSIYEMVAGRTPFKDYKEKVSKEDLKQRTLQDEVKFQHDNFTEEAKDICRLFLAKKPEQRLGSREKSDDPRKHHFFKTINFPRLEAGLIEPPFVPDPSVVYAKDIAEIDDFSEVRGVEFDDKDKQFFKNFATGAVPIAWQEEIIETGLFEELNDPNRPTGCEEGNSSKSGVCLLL

PDGFRA = PDGFRA (Homo sapiens, UniProt P16234)
ULK1 = ULK1 (Homo sapiens, UniProt O75385)
ALK = ALK (Homo sapiens, UniProt Q9UM73)
Sequence of ALK (Q9UM73 whole entry): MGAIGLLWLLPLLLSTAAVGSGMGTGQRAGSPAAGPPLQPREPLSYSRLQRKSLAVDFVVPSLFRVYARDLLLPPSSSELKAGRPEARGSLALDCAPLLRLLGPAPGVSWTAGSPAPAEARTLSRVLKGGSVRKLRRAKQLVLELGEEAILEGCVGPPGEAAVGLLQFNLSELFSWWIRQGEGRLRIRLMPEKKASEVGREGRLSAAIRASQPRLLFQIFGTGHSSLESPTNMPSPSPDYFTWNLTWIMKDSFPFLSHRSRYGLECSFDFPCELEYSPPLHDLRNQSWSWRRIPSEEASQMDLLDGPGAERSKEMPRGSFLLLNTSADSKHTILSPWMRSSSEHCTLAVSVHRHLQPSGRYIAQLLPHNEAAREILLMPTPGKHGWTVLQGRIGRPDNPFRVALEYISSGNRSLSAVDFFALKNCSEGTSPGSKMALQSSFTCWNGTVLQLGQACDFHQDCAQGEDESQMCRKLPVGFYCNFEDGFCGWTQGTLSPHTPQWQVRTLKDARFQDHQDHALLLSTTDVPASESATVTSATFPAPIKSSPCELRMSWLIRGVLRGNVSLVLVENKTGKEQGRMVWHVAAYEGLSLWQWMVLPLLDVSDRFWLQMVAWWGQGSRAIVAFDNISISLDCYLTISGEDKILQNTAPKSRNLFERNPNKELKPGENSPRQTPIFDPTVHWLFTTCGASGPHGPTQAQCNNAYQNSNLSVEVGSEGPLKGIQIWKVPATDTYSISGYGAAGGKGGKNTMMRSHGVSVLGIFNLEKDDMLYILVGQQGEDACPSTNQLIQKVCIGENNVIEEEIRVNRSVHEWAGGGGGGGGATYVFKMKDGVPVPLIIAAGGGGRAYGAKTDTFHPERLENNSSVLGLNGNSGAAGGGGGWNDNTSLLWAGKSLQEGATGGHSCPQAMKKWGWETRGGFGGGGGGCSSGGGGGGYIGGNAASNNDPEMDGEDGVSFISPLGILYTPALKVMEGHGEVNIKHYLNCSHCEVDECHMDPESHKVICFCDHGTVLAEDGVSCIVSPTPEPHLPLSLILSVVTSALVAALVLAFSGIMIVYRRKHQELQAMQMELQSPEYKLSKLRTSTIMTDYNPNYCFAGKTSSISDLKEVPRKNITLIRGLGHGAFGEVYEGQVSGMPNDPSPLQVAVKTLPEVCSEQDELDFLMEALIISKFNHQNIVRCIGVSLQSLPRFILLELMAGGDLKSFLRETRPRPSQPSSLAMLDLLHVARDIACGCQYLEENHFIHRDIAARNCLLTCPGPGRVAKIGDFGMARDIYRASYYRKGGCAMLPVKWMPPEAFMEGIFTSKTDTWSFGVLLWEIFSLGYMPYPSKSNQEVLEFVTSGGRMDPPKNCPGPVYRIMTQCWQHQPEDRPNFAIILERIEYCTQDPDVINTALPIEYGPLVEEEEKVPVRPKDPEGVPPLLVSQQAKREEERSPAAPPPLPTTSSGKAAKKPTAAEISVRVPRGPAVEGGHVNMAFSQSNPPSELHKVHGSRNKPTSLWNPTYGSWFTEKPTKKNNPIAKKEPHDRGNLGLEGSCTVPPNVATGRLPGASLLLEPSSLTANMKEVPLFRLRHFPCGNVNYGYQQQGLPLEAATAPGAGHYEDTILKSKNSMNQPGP

SMILES: COc1cc2c(cn1)N(C)C(=O)[C@@H](NC(=O)c1nc3n(n1)[C@H](c1ccccc1)CC3)CC2 [GNE684, (S)-N-((S)-7-methoxy-1-methyl-2-oxo-2,3,4,5-tetrahydro-1H-pyrido[3,4-b]azepin-3-yl)-5-phenyl-6,7-dihydro-5H-pyrrolo[1,2-b][1,2,4]triazole-2-carboxamide]
- remaining binding at 10 µM (FAK): 85%
- remaining binding at 10 µM (AURKC): 93%
- remaining binding at 10 µM (ASK1): 97%
- remaining binding at 10 µM (VEGFR2): 93%
- remaining binding at 10 µM (TNK1): 100%
- remaining binding at 10 µM (PIK3C2G): 100%
- remaining binding at 10 µM (PCTK1): 82%
- remaining binding at 10 µM (LKB1): 100%
- remaining binding at 10 µM (EGFR(L858R)): 100%
- remaining binding at 10 µM [1]: 96%
- remaining binding at 10 µM (NEK2): 92%
- remaining binding at 10 µM (PKN1): 94%
- remaining binding at 10 µM (AMPK-alpha1): 97%
- remaining binding at 10 µM (WEE2): 95%
- remaining binding at 10 µM (FLT3(D835V)): 88%
- remaining binding at 10 µM [2]: 75%
- remaining binding at 10 µM (BRK): 100%
- remaining binding at 10 µM (GRK7): 100%
- remaining binding at 10 µM (PDGFRA): 100%
- remaining binding at 10 µM (ULK1): 98%
- remaining binding at 10 µM (ALK): 81%
